ChEMBL document CHEMBL6096682, “Discovery of D-Ring-Contracted Artemisinin as a Potent Hydrophobic Tag for Targeted Protein Degradation” (J Med Chem, 2025)
The source made the active and inactive calls. The calls are words filed in the database; no cut-off is given here.

How the values were obtained:
[1] = target: T1, Estrogen receptor (Homo sapiens) (UniProt P03372); assay: HyT degrader activity at ER-alpha in human MCF7 cells assessed as induction of ER-alpha degradation by measuring decrease in ER-alpha level at 10 uM pretreated with 26S proteasome inhibitor, MG-132 for 2 hrs followed by incubation with compound for 12 hrs by immunoblot analysis; type: cell-based
T1 sequence (whole entry): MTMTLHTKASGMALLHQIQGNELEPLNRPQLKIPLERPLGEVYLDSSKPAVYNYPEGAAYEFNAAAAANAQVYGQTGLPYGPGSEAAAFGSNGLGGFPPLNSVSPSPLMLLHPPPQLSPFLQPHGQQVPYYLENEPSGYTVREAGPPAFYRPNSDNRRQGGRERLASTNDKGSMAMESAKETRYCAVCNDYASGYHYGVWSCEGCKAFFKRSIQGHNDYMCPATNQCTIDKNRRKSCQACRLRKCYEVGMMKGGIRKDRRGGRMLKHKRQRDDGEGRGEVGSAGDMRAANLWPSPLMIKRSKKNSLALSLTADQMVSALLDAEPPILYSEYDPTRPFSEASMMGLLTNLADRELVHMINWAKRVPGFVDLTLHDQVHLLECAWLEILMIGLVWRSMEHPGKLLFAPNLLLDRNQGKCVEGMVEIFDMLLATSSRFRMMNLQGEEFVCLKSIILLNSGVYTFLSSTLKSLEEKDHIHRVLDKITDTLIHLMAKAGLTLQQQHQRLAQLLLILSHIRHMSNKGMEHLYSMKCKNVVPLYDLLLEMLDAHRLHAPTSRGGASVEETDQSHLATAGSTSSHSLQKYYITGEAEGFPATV

[2] = target: T1, Estrogen receptor (Homo sapiens); assay: HyT degrader activity at ER-alpha in human MCF7 cells assessed as induction of ER-alpha degradation by measuring residual ER-alpha level at 10 uM incubated for 12 hrs by immunoblot analysis; type: cell-based
[3] = tested on: MCF7; assay: Antiproliferative activity against human MCF7 cells overexpressing ER-alpha Y537S mutant assessed as reduction in cell viability incubated for 48 hrs by MTT assay; type: functional, cell-based; conditions: MCF7, 48 h
[4] = target: T1, Estrogen receptor (Homo sapiens); assay: HyT degrader activity at ER-alpha in human MCF7 cells assessed as induction of ER-alpha degradation by measuring residual ER-alpha level at 10 uM pretreated with HSP70 inhibitor, VER-155008 for 2 hrs followed by incubation with compound for 12 hrs by immunoblot analysis; type: cell-based
[5] = tested on: MCF7; assay: Antiproliferative activity against human MCF7 cells overexpressing EGFR assessed as reduction in cell viability incubated for 48 hrs by MTT assay; type: functional, cell-based; conditions: MCF7, 48 h
[6] = tested on: MCF7; assay: Antitumor activity against human MCF7 cells xenografted in Balb/c mouse assessed as tumor volume at 10 mg/kg, iv administered every 3 days and measured for 21 days (reference value: 165.5 mm3); type: functional; conditions: time 21 day
[7] = Toxicity in Balb/c mouse xenografted with human MCF7 cells assessed as effect on liver morphological changes at 5 to 10 mg/kg, iv measured after 24 hrs by Hematoxylin-Eosin staining based analysis; type: organism-based; conditions: in vivo, dose 5-10 mg/kg
[8] = target: Estrogen receptor beta (Homo sapiens) (UniProt Q92731); assay: HyT degrader activity at ER-beta in human MCF7 cells assessed as induction of ER-beta degradation by measuring decrease in ER-beta level at 1 to 10 uM incubated for 24 hrs by immunoblot analysis; type: cell-based; conditions: dose 1-10 µM
[9] = target: T1, Estrogen receptor (Homo sapiens); assay: HyT degrader activity at ER-alpha in human MCF7 cells assessed as induction of ER-alpha degradation by measuring decrease in ER-alpha level at 10 uM incubated for 48 hrs followed by drug wash-out and measured after 72 hrs by western blot analysis; type: cell-based
[10] = Toxicity in Balb/c mouse xenografted with human MCF7 cells assessed as effect on red blood cells count at 5 to 10 mg/kg, iv measured after 24 hrs; type: organism-based; conditions: in vivo, dose 5-10 mg/kg
[11] = Toxicity in Balb/c mouse xenografted with human MCF7 cells assessed as effect on hematocrit level at 5 to 10 mg/kg, iv measured after 24 hrs; type: organism-based; conditions: in vivo, dose 5-10 mg/kg
[12] = Hepatotoxicity in Balb/c mouse xenografted with human MCF7 cells assessed as effect on ALT level in serum at 5 to 10 mg/kg, iv measured after 24 hrs; type: toxicity, organism-based; conditions: in vivo, dose 5-10 mg/kg
[13] = tested on: MCF7; assay: Antitumor activity against human MCF7 cells xenografted in Balb/c mouse assessed as reduction in tumor weight at 5 to 10 mg/kg, iv administered every 3 days and measured on day 21; type: functional, organism-based; conditions: dose 5-10 mg/kg, time 21.0 day
[14] = target: T1, Estrogen receptor (Homo sapiens); assay: HyT degrader activity at ER-alpha in human MCF7 cells assessed as induction of ER-alpha degradation by measuring decrease in ER-alpha level at 10 uM pretreated with NAE inhibitor, MLN4924 for 2 hrs followed by incubation with compound for 12 hrs by immunoblot analysis; type: cell-based
[15] = tested on: MCF7; assay: Antiproliferative activity against human MCF7 cells overexpressing ER-alpha Y537S mutant assessed as reduction in cell viability incubated for 48 hrs by MTT assay relative to control; type: functional
[16] = tested on: MCF7; assay: Antiproliferative activity against human MCF7 cells assessed as reduction in cell viability incubated for 48 hrs by MTT assay relative to control; type: functional
[17] = Toxicity in Balb/c mouse xenografted with human MCF7 cells assessed as effect on heart morphological changes at 5 to 10 mg/kg, iv measured after 24 hrs by Hematoxylin-Eosin staining based analysis; type: organism-based; conditions: in vivo, dose 5-10 mg/kg
[18] = Toxicity in Balb/c mouse xenografted with human MCF7 cells assessed as effect on platelets count at 5 to 10 mg/kg, iv measured after 24 hrs; type: organism-based; conditions: in vivo, dose 5-10 mg/kg
[19] = tested on: Mus musculus; assay: In vivo induction of ER-alpha degradation in Balb/c mouse xenografted with human MCF7 cells assessed as decrease in ER-alpha expression in tumor at 5 to 10 mg/kg, iv administered every 3 days and measured on day 21 by immunofluorescence analysis; type: functional, organism-based; conditions: dose 5-10 mg/kg, time 21.0 day
[20] = tested on: MCF7; assay: Antitumor activity against human MCF7 cells xenografted in Balb/c mouse assessed as inhibition of tumor growth at 10 mg/kg, iv administered every 3 days and measured for 21 days; type: functional; conditions: MCF7, 504 h, time 21 day, read-out: TGI
[21] = target: T1, Estrogen receptor (Homo sapiens); assay: HyT degrader activity at ER-alpha in human MCF7 cells assessed as induction of ER-alpha degradation by measuring decrease in ER-alpha level at 10 uM incubated for 48 hrs followed by drug wash-out and measured after 48 hrs by western blot analysis; type: cell-based
[22] = Toxicity in Balb/c mouse xenografted with human MCF7 cells assessed as effect on kidneys morphological changes at 5 to 10 mg/kg, iv measured after 24 hrs by Hematoxylin-Eosin staining based analysis; type: organism-based; conditions: in vivo, dose 5-10 mg/kg
[23] = tested on: MCF7; assay: Antitumor activity against human MCF7 cells xenografted in Balb/c mouse assessed as tumor tissue damage at 10 mg/kg, iv administered every 3 days and measured on day 21 by Hematoxylin-Eosin staining based analysis; type: functional, organism-based; conditions: time 21.0 day
[24] = target: T1, Estrogen receptor (Homo sapiens); assay: Binding affinity to ER-alpha in human MCF7 cells assessed as increase in thermal stability of protein at 100 uM incubated for 1 hr followed by exposure to heat at 25 to 66 degC for 3 mins and incubation for 3 mins at room temperature by thermal shift binding assay; type: cell-based; conditions: time 66.0 min
[25] = Toxicity in Balb/c mouse xenografted with human MCF7 cells assessed as changes in body weight at 5 to 10 mg/kg, iv administered every 3 days and measured for 21 days; type: organism-based; conditions: in vivo, 504 h, dose 5-10 mg/kg, time 21 day

Estrogen receptor beta (Homo sapiens), sequence (Q92731 whole entry): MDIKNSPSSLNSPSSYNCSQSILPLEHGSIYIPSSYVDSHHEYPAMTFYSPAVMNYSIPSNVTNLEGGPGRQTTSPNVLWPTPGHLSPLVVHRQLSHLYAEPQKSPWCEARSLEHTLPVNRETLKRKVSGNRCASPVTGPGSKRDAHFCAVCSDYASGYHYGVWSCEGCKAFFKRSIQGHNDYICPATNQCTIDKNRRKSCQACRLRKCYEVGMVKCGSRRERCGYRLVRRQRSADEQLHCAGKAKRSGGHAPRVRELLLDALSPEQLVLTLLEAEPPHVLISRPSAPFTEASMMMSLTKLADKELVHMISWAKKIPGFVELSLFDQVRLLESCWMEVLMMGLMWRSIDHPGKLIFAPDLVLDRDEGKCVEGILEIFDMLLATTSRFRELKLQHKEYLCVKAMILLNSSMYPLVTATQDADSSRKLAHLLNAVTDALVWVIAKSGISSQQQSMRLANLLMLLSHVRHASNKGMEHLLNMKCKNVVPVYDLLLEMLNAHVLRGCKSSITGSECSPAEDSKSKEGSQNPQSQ

## C[C@@H]1CCC2[C@]34OO[C@](C)(CCC13)O[C@@H]4O[C@]2(C)C(=O)NCCCOc1ccc(C(=O)c2c(-c3ccc(O)cc3)sc3cc(O)ccc23)cc1 (stereo not given in full)
[1]
  Activity: inactive
[2]
  Activity: 23.5%
[3]
  IC50: 10.9 µM
[4]
  Activity: 71.9%
[5]
  IC50: 4.65 µM
[6]
  Activity: 65.1 mm3
[7]
  Activity: Non-toxic
[8]
  Activity: Active
[9]
  Activity: inactive
[10]
  Activity: Non-toxic
[11]
  Activity: Non-toxic
[12]
  Activity: Non-toxic
[13]
  Activity: Active
[14]
  Activity: inactive
[15]
  inhibition (INH): 63.6%
[16]
  inhibition (INH): 73.5%
[17]
  Activity: Non-toxic
[18]
  Activity: Non-toxic
[19]
  Activity: Active
[20]
  inhibition in vivo at 10 mg/kg: 112%
[21]
  Activity: Active
[22]
  Activity: Non-toxic
[23]
  Activity: Active
[24]
  Activity: Active
[25]
  Activity: Non-toxic
